Measured values: patent US20260035367A1 (Celgene Corporation, priority 2021, published 2026)
Read-outs that look alike come from different tables or passages of the source.

How the values were obtained:
[1] = tested on: IL-2 secretion by human effector memory T cells (TEM); experiment: Effector memory T cells IL-2 release assay (CD3/CD28 stimulation, HTRF IL-2 detection); type: cell-based; conditions: 24 h; for IC50: Homo sapiens, T-cell
Method in brief: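 Human effector memory T cells from healthy-donor buffy coats were exposed in triplicate to ten semi-log doses of compound in 0.1% DMSO. The cells were stimulated and incubated 24 h at 37 °C. Secreted IL-2 in the supernatant was measured by HTRF.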

[2] = target: T1, Recombinant human PKC-delta (His-tagged 345-676) (Homo sapiens, UniProt Q05655); experiment: PKC-delta inhibition assay (HTRF KinEASE kit); type: biochemical; conditions: ratio, PKC-theta vs PKC-delta HTRF; for PKC-theta/PKC-delta selectivity (binned): binned A to G
T1 construct: PKC-delta (His-tagged 345-676); His

[3] = target: T2, Recombinant human PKC-theta (His-tagged 362-706) (Homo sapiens, UniProt Q04759); experiment: PKC-theta inhibition assay (HTRF KinEASE kit); type: biochemical; conditions: ATP 6.5 μM, STK substrate 525 nM
T2 construct: Recombinant human PKC-theta (His-tagged 362-706); His
Method in brief: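 IC50 values were from 4-parameter logistic fits of percent inhibition, based on acceptor/donor HTRF ratios over 10 semi-log compound doses. Kinase reactions, started with substrate plus ATP, ran 30 min at 25 °C in buffer supplemented with 10 mM MgCl2, 1 mM DTT and 0.1% Tween 20; detection lasted 2 h.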

[4] = binned A to G, read-out: PKC-theta IL2 pIC50 (binned) (converted)
[5] = read-out: PKC-theta IL2 pIC50 (converted)
[6] = binned A to H, read-out: PKC-theta HTRF pIC50 (binned) (converted)
[7] = read-out: PKC-theta HTRF pIC50 (converted)

T2 sequence (Q04759 362-706): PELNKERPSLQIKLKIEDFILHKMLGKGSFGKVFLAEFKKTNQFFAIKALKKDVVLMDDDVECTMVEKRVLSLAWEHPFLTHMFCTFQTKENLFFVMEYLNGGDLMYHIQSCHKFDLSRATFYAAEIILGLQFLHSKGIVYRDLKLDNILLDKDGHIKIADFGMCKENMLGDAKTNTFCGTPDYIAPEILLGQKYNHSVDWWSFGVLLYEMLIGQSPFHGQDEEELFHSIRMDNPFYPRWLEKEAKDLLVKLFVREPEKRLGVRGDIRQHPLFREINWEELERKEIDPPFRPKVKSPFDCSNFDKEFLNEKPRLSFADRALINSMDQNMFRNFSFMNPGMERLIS
T1 sequence (Q05655 345-676): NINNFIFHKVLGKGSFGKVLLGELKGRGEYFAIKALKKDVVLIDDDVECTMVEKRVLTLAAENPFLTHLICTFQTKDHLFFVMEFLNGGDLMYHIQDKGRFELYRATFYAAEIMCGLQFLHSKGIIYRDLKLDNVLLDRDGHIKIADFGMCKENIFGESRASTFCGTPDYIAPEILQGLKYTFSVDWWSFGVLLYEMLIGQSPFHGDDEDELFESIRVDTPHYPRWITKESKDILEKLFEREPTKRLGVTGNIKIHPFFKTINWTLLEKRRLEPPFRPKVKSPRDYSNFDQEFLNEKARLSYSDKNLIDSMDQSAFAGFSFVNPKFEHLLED

Row | Compound | IC50 [1, 4] [nM] | IC50 [1, 5] [nM] | PKC-theta/PKC-delta selectivity [2] | PKC-theta/PKC-delta selectivity (binned) [2] | IC50 [3, 6] [nM] | IC50 [3, 7] [nM] | PKC-theta IL2 pIC50 [1] | PKC-theta IL2 pIC50 (binned) ([1]; binned A to G)
1 | C[C@H]1CN(c2cc(Cl)cc(-c3ccnc4c3C(C)(O)C(=O)N4)c2)CCN1 (stereo partly drawn) [Example 75] | 100 to 316 | 158 | 11 | D (a ratio of between 10 and 20) | 3.16 to 10 | 7.94 | – | –
2 | Cc1cc(-c2ccnc3c2C(C)(C)C(=O)N3)cc(N2CCNCC2)c1 [Example 61] | 316 to 1000 | 794 | 6 | E (a ratio of between 5 and 10) | 31.6 to 100 | 50.1 | – | –
3 | C[C@@H]1NCCN(c2cc(C(F)(F)F)cc(-c3ccnc4c3[C@](C)(O)C(=O)N4)n2)[C@@H]1C [Example 126] | 10 to 31.6 | 25.1 | 12 | D (a ratio of between 10 and 20) | 1 to 3.16 | 1.26 | – | –
4 | CC[C@]1(C)C(=O)Nc2nccc(-c3cc(C(C)(F)F)cc(N4CCN[C@@H](C)C4)n3)c21 (single isomer, unassigned) [Example 199] | 10 to 31.6 | 25.1 | 16 | D (a ratio of between 10 and 20) | 1 to 3.16 | 1.58 | – | –
5 | C[C@@H]1CN(c2cc(C(F)(F)F)cc(-c3ccnc4c3C(C)(C)C(=O)N4)n2)[C@H](C)CN1 [Example 178] | 31.6 to 100 | 63.1 | 20 | D (a ratio of between 10 and 20) | 1 to 3.16 | 3.16 | – | –
6 | C[C@H]1CNCCN1c1cc(Cl)cc(-c2ccnc3c2[C@](C)(O)C(=O)N3)n1 (single isomer, unassigned) [Example 104] | 100 to 316 | 126 | 11 | D (a ratio of between 10 and 20) | 3.16 to 10 | 5.01 | – | –
7 | C[C@@]1(O)C(=O)Nc2nccc(-c3cc(C(F)(F)F)cc(N4CC5CC(C4)N5)n3)c21 (single isomer, unassigned) [Example 149] | 316 to 1000 | 398 | 15 | D (a ratio of between 10 and 20) | 10 to 31.6 | 25.1 | – | –
8 | CC1(C)C(=O)Nc2nccc(-c3cc(C(F)(F)F)cc(N4CCNC[C@H]4CO)n3)c21 [Example 161] | 31.6 to 100 | 50.1 | 12 | D (a ratio of between 10 and 20) | 1 to 3.16 | 2.51 | – | –
9 | CC1(C)C(=O)Nc2nccc(-c3cc(C(F)(F)F)cc(N4CCNCC4)n3)c21 [Example 66] | 31.6 to 100 | 79.4 | 13 | D (a ratio of between 10 and 20) | 3.16 to 10 | 5.01 | – | –
10 | CC1(C)C(=O)Nc2nccc(-c3cc(C(F)(F)F)cc(N4CC5CCC4CN5)n3)c21 (stereo not drawn) [Example 137] | 100 to 316 | 251 | 16 | D (a ratio of between 10 and 20) | 10 to 31.6 | 12.6 | – | –
11 | CC1(C)C(=O)Nc2nccc(-c3cccc(C4(CO)CCNC4)c3)c21 (stereo not drawn) [Example 43] | 316 to 1000 | 631 | 3 | F (a ratio of between 1 and 5) | 3.16 to 10 | 7.94 | – | –
12 | CC[C@]1(C)C(=O)Nc2nccc(-c3cc(Cl)cc(N4CCN[C@@H](C)C4)n3)c21 (single isomer, unassigned) [Example 171] | 31.6 to 100 | 39.8 | 9 | E (a ratio of between 5 and 10) | 1 to 3.16 | 2.51 | – | –
13 | C[C@]1(O)C(=O)Nc2nccc(-c3cc(F)cc(N4CCNCC4)c3)c21 (single isomer, unassigned) [Example 62] | 100 to 316 | 126 | 5 | E (a ratio of between 5 and 10) | 3.16 to 10 | 6.31 | – | –
14 | C[C@@H]1CN(c2cccc(-c3ccnc4[nH]c(=O)[nH]c34)c2)C[C@H](C)N1 [Example 11] | > 1000 | 6310 | 4 | F (a ratio of between 1 and 5) | > 1000 | 2510 | – | –
15 | CC1C(=O)Nc2nccc(-c3cccc(N4CCNCC4)c3)c21 (stereo not drawn) [Example 5] | 316 to 1000 | 794 | 4 | F (a ratio of between 1 and 5) | 31.6 to 100 | 79.4 | – | –
16 | CC1(C)C(=O)Nc2ncc(Br)c(-c3cc(F)cc(N4CCNCC4)c3)c21 [Example 69] | 316 to 1000 | 398 | 1 | F (a ratio of between 1 and 5) | 31.6 to 100 | 39.8 | – | –
17 | C[C@@H]1CN(c2cc(C(F)(F)F)cc(-c3ccnc4c3C(C)(C)C(=O)N4)n2)CCCN1 [Example 186] | 31.6 to 100 | 50.1 | 22 | C (a ratio of between 20 and 30) | 3.16 to 10 | 6.31 | – | –
18 | CC1C(=O)Nc2nccc(-c3cc(F)cc(N4CCNCC4)c3)c21 (stereo not drawn) [Example 18] | 100 to 316 | 200 | 3 | F (a ratio of between 1 and 5) | 10 to 31.6 | 25.1 | – | –
19 | C[C@H]1NCCN(c2cc(C(F)(F)F)cc(-c3ccnc4c3C(C)(C)C(=O)N4)n2)[C@H]1C [Example 168] | – | – | 14 | D (a ratio of between 10 and 20) | 0.316 to 1 | 0.501 | 8.1 | B (a measured pIC50 of between 8.0 and 8.5)
20 | O=c1[nH]c2nccc(-c3cccc(N4CCNCC4c4cccnc4)c3)c2[nH]1 (stereo not drawn) [Example 12] | > 1000 | 10000 | 1 | G (a ratio of 0 to 1) | > 1000 | 5010 | – | –
21 | CC[C@H]1CN(c2cc(C(F)(F)F)cc(-c3ccnc4c3[C@](C)(OC)C(=O)N4)n2)CCN1 (single isomer, unassigned) [Example 191] | 100 to 316 | 251 | 22 | C (a ratio of between 20 and 30) | 10 to 31.6 | 15.8 | – | –
22 | COC[C@@H]1CN(c2cc(C(F)(F)F)cc(-c3ccnc4c3C(C)(C)C(=O)N4)n2)CCN1 [Example 120] | 316 to 1000 | 501 | 15 | D (a ratio of between 10 and 20) | 10 to 31.6 | 25.1 | – | –
